# “Also recorded” adds a separate entry of the source.
# Key:
# [1] = tested on: regulatory T cells (CD4+CD25+FoxP3+ T cells), effector T cells and NK cells; experiment: Treg versus effector T and NK cell proliferation and expansion in mice after a single subcutaneous injection; format: in vivo, mouse; settings: 0.3 mg/kg s.c. single dose, C57/BL6 mice; for Treg cell proliferation and expansion (Ki67 positive Treg, % Treg over CD4+ T cells or lymphocytes): days 3, 5, 7
# Procedure: IL-2 variant Fc fusion proteins were administered to mice and their ability to preferentially proliferate and expand regulatory T cells (CD4+CD25+FoxP3+ T cells) over effector T cells and NK cells were determined in vivo.
# Female C57/BL6 mice (7-week old) were received from Charles River Laboratory and acclimated in house for at least 7 days before the study. Vehicle (PBS), 0.3 mg/kg of each test compounds, or IL-2 benchmark compounds were subcutaneously administered to mice on day 0. Peripheral blood samples were collected into heparin-treated tubes on days 3, 5 and 7 post-treatment. Each group contained 6 mice and baseline blood was collected 2 days prior to the treatment (day-2). After red blood cell lysis, total viable mononuclear blood cells were counted by trypan blue dead cell exclusion method and proceeded to intracellular staining for immune cell phenotype and Ki67 proliferation markers using flow cytometric analysis. Cells were stained separately with two panels of antibodies as listed: 1) anti-mouse Foxp3-FITC, Ki67-PE, anti-mouse CD25-APC and anti-mouse CD4-Percpcy5.5 (1:50 dilution) for CD4+T-regulatory cells (Treg); 2) anti-mouse CD3-FITC, Ki67-PE, anti-mouse CD335-APC and anti-mouse CD8-Percpcy5.5 (1:50 dilution) for CD8+T and NK cells.
# [2] = tested on: delayed-type hypersensitivity (DTH) mouse model; experiment: KLH-induced delayed-type hypersensitivity (DTH) mouse model, ear thickness; format: in vivo
# Procedure: The ability of Treg cells induced by IL-2 variants to suppress T cell antigen-driven inflammation in vivo was assessed in a model of delayed-type hypersensitivity (DTH). Female Balb/C mice (7-week old) were acclimated in house for 7 days and randomized into groups. Subcutaneous administration of vehicle (PBS), P-0511 at either 0.1 mg/kg or 0.3 mg/kg was initiated on day-2 and was given either once every 3 days (Q3D) for three injections or once every 5 days (Q5D) for two injections. Mice were then sensitized with a subcutaneous administration of 100 μg keyhole limpet hemocyanin (KLH) in 200 μl saline on day 0. For Q3D dosing, two more subcutaneous injections of PBS or P-0511 (0.1 or 0.3 mg/kg) were administered on days 1 and 4; for Q5D dosing, one additional s.c. injection of PBS, 0.1 or 0.3 mg/kg P-0511 was administered on day 3. Mice received an intradermal challenge of KLH (5 μg in 10 μl saline) in right ear on day 5. Right ear thickness was measured using a caliper on day 5 prior KLH challenge and daily from day 6 to day 8 corresponding to 24 h, 48h, and 72 h post KLH challenge. One group of mice also received 5 mg/kg daily i.p. treatment of dexamethasone from day 5 to day 8 as a positive control.
# Kinetics of the DTH response using the change in ear thickness relative to baseline values (Δ ear thickness) at various times after KLH challenge was illustrated in FIG. 23.
# In a separate study, dose-dependent response of P-0511 (0.1, 0.3 and 1 mg/kg, Q5D) on suppression of KLH-induced DTH was determined and compared with Benchmark-1 (0.3 mg/kg, Q5D).
# [3] = tested on: STAT5 phosphorylation in CD4+ Treg cells (CD4+/Foxp3+/CD25high); experiment: STAT5 phosphorylation in CD4+ Treg cells, human PBMC assay by FACS; format: cell-based; settings: for window for selective activation of Treg cells over CD4+ Tconv cells (in words): pSTAT5, Treg versus Tconv; for pSTAT5 activity profile compared with benchmark molecules (in words): Treg and CD4+ Tconv cells
# Description: Single amino acid substitutions were introduced to IL-2 at positions corresponding to amino acids interacting with receptor subunit(s) β or γ or By. These substitutions were aimed to reduce IL-2 signaling capacity through the intermediate affinity IL-2Rβγ complex and confer signaling specificity from the high affinity IL-2Rαβγ. IL-2 variants containing single amino acid substitutions were examined for their ability to differentially stimulate STAT5 phosphorylation in CD4 positive Treg and Tconv cells. STAT5 is known to be involved in the downstream signaling cascade upon IL-2 binding to the transmembrane IL-2 receptors. The phosphorylation of STAT5 in defined lymphocyte subpopulations was measured using fresh human peripheral blood mononuclear cells (PBMC) and the forkhead transcription factor FOXP3 was used to identify the Treg population in FACS analysis.
# Briefly, human PBMC were isolated by Ficoll-Hypaque centrifugation from the buffy coat of a healthy donor. PBMC were starved in serum-free MACS buffer at 4° C. for 1 hour. 2×10^5 PBMC were then treated with serial dilutions of test compounds for 30 min at 37° C. Cells were fixed and permeabilized with Foxp3/Transcription Factor Staining Buffer Set (EBIO) by incubating with 1× Foxp3 fixation/permeabilization working solution for 30 minutes and washing with 1× permeabilization buffer. Cells were additionally fixed with Cytofix buffer and permeabilized with Perm Buffer III (BD Biosciences) and then washed. After blocking Fc receptors by adding human TruStain™ FcX (1:50 dilution), cells were stained with a mixture of anti-CD25-PE, anti-FOXP3-APC, anti-pSTAT5-FITC, and anti-CD4-PerCP-Cy5.5 antibodies at concentrations recommended by the manufacturer for 45 minutes at room temperature. Cells were collected by centrifugation, washed, resuspended in FACS buffer, and analyzed by flow cytometry. The flow cytometry data was gated into CD4+/Foxp3+/CD25^high and CD4+/Foxp3−/CD25^low groups for the Treg and CD4 conventional T cell subsets, respectively. Data are expressed as a percent of pStat5 positive cells in gated population.
# [4] = tested on: STAT5 phosphorylation in CD4+/Foxp3+/CD25+ Treg, CD4+/Foxp3-/CD25+ CD4 effector and CD4+/Foxp3-/CD25- CD4 naive T cell subsets; experiment: STAT5 phosphorylation in three CD4+ T cell subsets, human PBMC; format: cell-based; settings: FIG. 9
# Procedure: After human PBMC Cells were treated with serial dilutions of test compounds, fixed and permeabilized, washed, and stained with a mixture of anti-CD25-PE, anti-FOXP3-APC, anti-pSTAT5-FITC, and anti-CD4-PerCP-Cy5.5 antibodies, the flow cytometry analysis was gated into CD4+/Foxp3+/CD25+, CD4+/Foxp3−/CD25+, CD4+/Foxp3−/CD25− groups for the Treg, CD4 effector, and CD4 naive T cell subsets, respectively. Data are expressed as a percent of pSTAT5 positive cells in gated population and illustrated in FIG. 9.
# Treg cells in blood = experiment: Pharmacodynamics study in mice following repeated administration (Q3D); format: in vivo, mouse; settings: 0.3 mg/kg s.c. Q3D x3; compared to P-0531 and Benchmark-1
# Procedure: Female Balb/C mice (7-week old) were acclimated in house for 5-7 days before the study. Vehicle (PBS), 0.3 mg/kg of P-0511, P-0512, P-0531, or Benchmark-1 compound were subcutaneously administered to mice (n=5/group) on days 0, 3, and 6. On days 3 and 9, three days after the first injection and multiple (3) injections, respectively, peripheral blood was collected. Based on earlier in vivo experiments, Treg cell activation, proliferation, and expansion were expected to peak on day 3, and thus three days post injection was selected for data collection and analysis. Changes in blood lymphocyte activation, proliferation, and expansion were measured by flow cytometry. P-0531 is the S125I equivalent of the wild type IL-2 fusion protein. The Benchmark-1 contains V91K mutation.
compound,measurement,setting,value
Benchmark-1: benchmark Fc-IL-2 variant fusion protein containing V91K mutation; SEQ ID NO: 191 [reference compound],Ki67 stimulation on CD8 T cells and NK cells,[1],strong Ki67 stimulation
same,"Treg cell proliferation and expansion (Ki67 positive Treg, % Treg over CD4+ T cells or lymphocytes)",[1],highest potency
same,"inhibition of ear inflammation (KLH-induced DTH), separate study","[2]; 0.3 mg/kg, Q5D",mild inhibition of ear swelling
P-0514: Fc fusion protein of IL-2 variant L19Q/S125I/Q126E; SEQ ID NO: 201,"expansion of CD4+ Tconv cells, CD8 T cells or NK cells",[1],No significant expansion
same,"Treg cell proliferation and expansion (Ki67 positive Treg, % Treg over CD4+ T cells or lymphocytes)",[1],stronger in vivo efficacy
P-0363: Fc fusion protein of IL-2 variant D20T; SEQ ID NO: 72,window for selective activation of Treg cells over CD4+ Tconv cells (in words),[3],some or significant biased selective window
"C[C@@H]1C[C@H]2[C@@H]3CCC4=CC(=O)C=C[C@]4(C)[C@@]3(F)[C@@H](O)C[C@]2(C)[C@@]1(O)C(=O)CO [dexamethasone, reference compound]",inhibition of KLH-induced inflammatory response (ear swelling),"[2]; 5 mg/kg daily i.p., 4 consecutive doses, 72 hours after KLH challenge",~85%
P-0373: Fc fusion protein of IL-2 variant L19N; SEQ ID NO: 80,window for selective activation of Treg cells over CD4+ Tconv cells (in words),[3],wide window for selective targeting of Treg subset; also recorded: some or significant biased selective window
P-0512: Fc fusion protein of IL-2 variant L19H/S125I/Q126K; SEQ ID NO: 199,"pSTAT5 potency and selectivity in Treg, Teff and naive CD4 T cell subsets (in words)",[4],comparable activity profile to Benchmark-1
same,Ki67 stimulation on CD8 T cells and NK cells,[1],mild Ki67 stimulation
same,"expansion of CD4+ Tconv cells, CD8 T cells or NK cells",[1],No significant expansion
same,"Treg cell proliferation and expansion (Ki67 positive Treg, % Treg over CD4+ T cells or lymphocytes)",[1],stronger in vivo efficacy
same,"Treg cell counts, fold changes relative to PBS and Treg/Tconv ratio",Treg cells in blood,superior capabilities to sustain Treg pool
P-0491: Fc fusion protein of IL-2 variant L19H/S125I; SEQ ID NO: 185,window for selective activation of Treg cells over CD4+ Tconv cells (in words),[3],without altering Treg selectivity
P-0303: Fc fusion protein of IL-2 variant Q126E; SEQ ID NO: 88,window for selective activation of Treg cells over CD4+ Tconv cells (in words),[3],modestly improved selective window
Benchmark-3: benchmark Fc-IL-2 variant fusion protein containing N88D; SEQ ID NO: 192 [reference compound],Ki67 stimulation on CD8 T cells and NK cells,[1],low effects
same,"Treg cell proliferation and expansion (Ki67 positive Treg, % Treg over CD4+ T cells or lymphocytes)",[1],not efficacious
"P-0531: Fc fusion protein of IL-2 variant S125I, the S125I equivalent of wild type P-0250; SEQ ID NO: 162",window for selective activation of Treg cells over CD4+ Tconv cells (in words),[3],without altering Treg selectivity
P-0424: Fc fusion protein of IL-2 variant L19H; SEQ ID NO: 148,window for selective activation of Treg cells over CD4+ Tconv cells (in words),[3],selective activation of Treg cells over CD4+ Tconv cells
P-0447: Fc fusion protein of IL-2 variant L19H/Q126E; SEQ ID NO: 168,pSTAT5 activity profile compared with benchmark molecules (in words),[3],on par with Benchmark-3
P-0425: Fc fusion protein of IL-2 variant L19D; SEQ ID NO: 149,window for selective activation of Treg cells over CD4+ Tconv cells (in words),[3],wide window for selective targeting of Treg subset
P-0448: Fc fusion protein of IL-2 variant L19Q/Q126E; SEQ ID NO: 169,pSTAT5 activity profile compared with benchmark molecules (in words),[3],on par with Benchmark-3
P-0372: Fc fusion protein of IL-2 variant L19Y; SEQ ID NO: 79,window for selective activation of Treg cells over CD4+ Tconv cells (in words),[3],modestly improved selective window
P-0449: Fc fusion protein of IL-2 variant L19S/Q126E; SEQ ID NO: 170,pSTAT5 activity profile compared with benchmark molecules (in words),[3],on par with Benchmark-3

# — patent US12152060B2, “Interleukin-2 variants and methods of uses thereof” (Cugene Inc, priority 2018, dated 2024)
